Key:
[1] = target: T1, Serine/threonine-protein kinase D3 (Homo sapiens) (UniProt O94806); experiment: Inhibition of PRKD3 (unknown origin) assessed as remaining activity at 1 uM by Kinome scan method relative to control
T1 sequence (whole entry): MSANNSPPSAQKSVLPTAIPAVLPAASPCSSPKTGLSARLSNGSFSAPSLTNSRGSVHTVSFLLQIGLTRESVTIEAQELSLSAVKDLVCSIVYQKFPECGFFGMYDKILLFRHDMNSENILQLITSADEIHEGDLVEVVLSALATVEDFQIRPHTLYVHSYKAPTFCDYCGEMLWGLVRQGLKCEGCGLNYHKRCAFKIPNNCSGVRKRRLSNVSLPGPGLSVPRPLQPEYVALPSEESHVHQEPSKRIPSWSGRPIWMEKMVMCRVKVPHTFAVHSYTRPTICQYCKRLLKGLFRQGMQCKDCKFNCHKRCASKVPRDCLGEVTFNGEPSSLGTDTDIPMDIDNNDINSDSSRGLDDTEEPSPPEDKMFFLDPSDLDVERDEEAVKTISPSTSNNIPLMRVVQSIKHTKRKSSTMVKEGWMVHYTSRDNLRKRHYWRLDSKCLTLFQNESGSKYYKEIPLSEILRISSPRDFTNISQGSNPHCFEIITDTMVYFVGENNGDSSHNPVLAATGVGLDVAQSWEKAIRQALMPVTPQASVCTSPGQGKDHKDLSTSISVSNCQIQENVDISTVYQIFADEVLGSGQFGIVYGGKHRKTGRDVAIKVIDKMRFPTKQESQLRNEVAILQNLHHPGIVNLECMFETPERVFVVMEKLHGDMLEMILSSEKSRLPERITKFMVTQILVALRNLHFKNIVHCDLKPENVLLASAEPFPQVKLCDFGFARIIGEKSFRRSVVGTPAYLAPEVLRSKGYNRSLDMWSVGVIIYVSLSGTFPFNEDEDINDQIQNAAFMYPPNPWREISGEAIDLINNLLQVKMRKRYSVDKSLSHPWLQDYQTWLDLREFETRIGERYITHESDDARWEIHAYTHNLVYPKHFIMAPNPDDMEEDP

[2] = test system: Tyrosine-protein kinase ABL1 (Homo sapiens), P00519 [E255K]; experiment: Inhibition of ABL1 E255K mutant (unknown origin) assessed as remaining activity at 1 uM by Kinome scan method relative to control
Tyrosine-protein kinase ABL1 (Homo sapiens), P00519 [E255K], sequence (P00519 whole entry E255K): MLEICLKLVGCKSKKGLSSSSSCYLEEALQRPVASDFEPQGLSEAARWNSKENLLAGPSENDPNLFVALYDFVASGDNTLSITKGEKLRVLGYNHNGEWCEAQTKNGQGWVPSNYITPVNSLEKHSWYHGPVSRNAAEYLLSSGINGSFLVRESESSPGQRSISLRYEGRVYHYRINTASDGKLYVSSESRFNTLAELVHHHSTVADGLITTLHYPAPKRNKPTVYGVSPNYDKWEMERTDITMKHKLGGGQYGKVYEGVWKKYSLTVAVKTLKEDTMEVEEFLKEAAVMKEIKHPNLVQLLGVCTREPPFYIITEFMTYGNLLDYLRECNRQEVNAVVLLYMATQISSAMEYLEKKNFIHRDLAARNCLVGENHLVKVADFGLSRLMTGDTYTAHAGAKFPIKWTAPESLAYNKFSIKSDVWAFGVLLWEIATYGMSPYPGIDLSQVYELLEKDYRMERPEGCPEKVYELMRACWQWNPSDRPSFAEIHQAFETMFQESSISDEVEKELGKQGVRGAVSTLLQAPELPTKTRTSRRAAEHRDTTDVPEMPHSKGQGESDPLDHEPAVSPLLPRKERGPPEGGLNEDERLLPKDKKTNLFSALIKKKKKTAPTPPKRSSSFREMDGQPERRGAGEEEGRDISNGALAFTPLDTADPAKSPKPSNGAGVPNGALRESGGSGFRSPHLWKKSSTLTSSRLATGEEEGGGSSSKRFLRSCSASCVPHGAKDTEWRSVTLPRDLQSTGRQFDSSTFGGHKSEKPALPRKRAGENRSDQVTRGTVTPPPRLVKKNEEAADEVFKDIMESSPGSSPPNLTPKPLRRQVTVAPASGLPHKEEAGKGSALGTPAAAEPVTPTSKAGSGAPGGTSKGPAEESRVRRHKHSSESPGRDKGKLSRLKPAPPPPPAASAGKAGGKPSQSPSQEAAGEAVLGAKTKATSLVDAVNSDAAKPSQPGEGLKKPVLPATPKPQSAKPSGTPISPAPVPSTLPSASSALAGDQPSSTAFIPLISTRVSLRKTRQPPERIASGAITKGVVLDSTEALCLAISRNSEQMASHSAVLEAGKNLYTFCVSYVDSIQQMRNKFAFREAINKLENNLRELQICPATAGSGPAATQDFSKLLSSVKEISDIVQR

[3] = target: Interleukin-1 receptor-associated kinase 3 (Homo sapiens) (UniProt Q9Y616); experiment: Inhibition of IRAK3 (unknown origin) assessed as remaining activity at 1 uM by Kinome scan method relative to control
Interleukin-1 receptor-associated kinase 3 (Homo sapiens), sequence (Q9Y616 whole entry): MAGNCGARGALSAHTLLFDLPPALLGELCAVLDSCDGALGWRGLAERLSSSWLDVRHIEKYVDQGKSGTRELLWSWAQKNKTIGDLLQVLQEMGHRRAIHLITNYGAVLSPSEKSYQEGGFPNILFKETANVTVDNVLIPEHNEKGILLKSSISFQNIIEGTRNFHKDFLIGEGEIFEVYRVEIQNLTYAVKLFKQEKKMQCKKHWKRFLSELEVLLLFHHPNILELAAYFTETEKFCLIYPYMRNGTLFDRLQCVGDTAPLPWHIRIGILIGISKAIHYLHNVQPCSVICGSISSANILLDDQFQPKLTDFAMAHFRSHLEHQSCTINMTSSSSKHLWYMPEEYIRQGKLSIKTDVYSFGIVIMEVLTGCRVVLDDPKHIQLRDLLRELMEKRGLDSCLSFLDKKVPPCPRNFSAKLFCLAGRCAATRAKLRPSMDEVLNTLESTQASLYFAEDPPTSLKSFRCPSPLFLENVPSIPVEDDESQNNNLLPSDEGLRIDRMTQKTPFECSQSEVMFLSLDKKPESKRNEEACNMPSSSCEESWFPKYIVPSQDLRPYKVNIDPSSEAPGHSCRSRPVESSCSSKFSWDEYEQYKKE

[4] = target: Tyrosine-protein kinase receptor Tie-1 (Homo sapiens) (UniProt P35590); experiment: Inhibition of TIE1 (unknown origin) assessed as remaining activity at 1 uM by Kinome scan method relative to control
Tyrosine-protein kinase receptor Tie-1 (Homo sapiens), sequence (P35590 whole entry): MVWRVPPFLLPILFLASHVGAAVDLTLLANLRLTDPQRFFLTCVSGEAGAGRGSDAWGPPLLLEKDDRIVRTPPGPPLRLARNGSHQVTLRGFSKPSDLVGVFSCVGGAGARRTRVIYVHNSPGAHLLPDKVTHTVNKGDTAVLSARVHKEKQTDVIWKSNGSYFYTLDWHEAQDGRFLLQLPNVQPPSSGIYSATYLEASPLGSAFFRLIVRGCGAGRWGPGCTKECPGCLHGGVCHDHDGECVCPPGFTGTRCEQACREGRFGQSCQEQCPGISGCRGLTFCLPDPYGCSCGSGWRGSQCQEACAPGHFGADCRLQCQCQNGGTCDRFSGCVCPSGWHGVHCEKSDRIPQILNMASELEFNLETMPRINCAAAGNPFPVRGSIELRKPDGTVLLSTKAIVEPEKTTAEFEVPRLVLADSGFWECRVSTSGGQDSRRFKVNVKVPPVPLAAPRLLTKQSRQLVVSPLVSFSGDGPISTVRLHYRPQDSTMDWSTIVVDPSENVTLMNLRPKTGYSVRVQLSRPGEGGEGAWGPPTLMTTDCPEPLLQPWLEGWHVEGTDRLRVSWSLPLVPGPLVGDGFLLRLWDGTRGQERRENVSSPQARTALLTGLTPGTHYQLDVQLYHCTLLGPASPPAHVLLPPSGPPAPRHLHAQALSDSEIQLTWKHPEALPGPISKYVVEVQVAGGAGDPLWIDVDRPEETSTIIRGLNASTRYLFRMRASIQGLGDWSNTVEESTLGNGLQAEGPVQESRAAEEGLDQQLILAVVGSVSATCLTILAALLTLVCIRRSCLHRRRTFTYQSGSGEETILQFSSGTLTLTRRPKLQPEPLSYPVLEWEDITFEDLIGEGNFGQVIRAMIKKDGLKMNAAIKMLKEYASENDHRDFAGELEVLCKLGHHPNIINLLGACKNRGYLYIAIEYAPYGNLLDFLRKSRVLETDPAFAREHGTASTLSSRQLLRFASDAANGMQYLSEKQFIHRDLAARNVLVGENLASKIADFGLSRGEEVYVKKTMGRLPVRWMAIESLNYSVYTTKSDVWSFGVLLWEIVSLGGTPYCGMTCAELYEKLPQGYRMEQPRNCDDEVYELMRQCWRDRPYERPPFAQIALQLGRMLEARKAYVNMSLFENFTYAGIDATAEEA

[5] = target: T2, Inhibitor of nuclear factor kappa-B kinase subunit alpha (Homo sapiens) (UniProt O15111); experiment: Inhibition of IKK-alpha (unknown origin) assessed as remaining activity at 1 uM by Kinome scan method relative to control
T2 sequence (whole entry): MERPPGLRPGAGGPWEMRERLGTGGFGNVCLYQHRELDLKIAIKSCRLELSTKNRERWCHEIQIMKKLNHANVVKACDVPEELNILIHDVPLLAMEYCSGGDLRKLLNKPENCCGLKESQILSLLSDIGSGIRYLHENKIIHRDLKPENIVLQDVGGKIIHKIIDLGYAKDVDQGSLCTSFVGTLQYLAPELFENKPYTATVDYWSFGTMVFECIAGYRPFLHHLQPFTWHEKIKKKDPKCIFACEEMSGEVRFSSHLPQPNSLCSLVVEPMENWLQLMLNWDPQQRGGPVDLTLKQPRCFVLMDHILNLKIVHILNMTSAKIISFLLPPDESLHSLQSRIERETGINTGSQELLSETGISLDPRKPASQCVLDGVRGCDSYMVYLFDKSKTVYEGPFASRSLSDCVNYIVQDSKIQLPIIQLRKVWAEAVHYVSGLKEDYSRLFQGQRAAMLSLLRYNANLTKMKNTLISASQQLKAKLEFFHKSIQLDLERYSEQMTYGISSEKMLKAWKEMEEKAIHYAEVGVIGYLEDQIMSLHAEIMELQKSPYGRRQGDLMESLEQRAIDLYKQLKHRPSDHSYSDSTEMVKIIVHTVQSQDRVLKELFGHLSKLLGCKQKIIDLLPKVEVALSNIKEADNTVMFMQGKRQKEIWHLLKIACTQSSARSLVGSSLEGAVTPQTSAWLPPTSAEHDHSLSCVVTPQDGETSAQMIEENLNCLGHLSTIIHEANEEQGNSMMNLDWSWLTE

[6] = target: Ephrin type-B receptor 6 (Homo sapiens) (UniProt O15197); experiment: Inhibition of EPHB6 (unknown origin) assessed as remaining activity at 1 uM by Kinome scan method relative to control
Ephrin type-B receptor 6 (Homo sapiens), sequence (O15197 whole entry): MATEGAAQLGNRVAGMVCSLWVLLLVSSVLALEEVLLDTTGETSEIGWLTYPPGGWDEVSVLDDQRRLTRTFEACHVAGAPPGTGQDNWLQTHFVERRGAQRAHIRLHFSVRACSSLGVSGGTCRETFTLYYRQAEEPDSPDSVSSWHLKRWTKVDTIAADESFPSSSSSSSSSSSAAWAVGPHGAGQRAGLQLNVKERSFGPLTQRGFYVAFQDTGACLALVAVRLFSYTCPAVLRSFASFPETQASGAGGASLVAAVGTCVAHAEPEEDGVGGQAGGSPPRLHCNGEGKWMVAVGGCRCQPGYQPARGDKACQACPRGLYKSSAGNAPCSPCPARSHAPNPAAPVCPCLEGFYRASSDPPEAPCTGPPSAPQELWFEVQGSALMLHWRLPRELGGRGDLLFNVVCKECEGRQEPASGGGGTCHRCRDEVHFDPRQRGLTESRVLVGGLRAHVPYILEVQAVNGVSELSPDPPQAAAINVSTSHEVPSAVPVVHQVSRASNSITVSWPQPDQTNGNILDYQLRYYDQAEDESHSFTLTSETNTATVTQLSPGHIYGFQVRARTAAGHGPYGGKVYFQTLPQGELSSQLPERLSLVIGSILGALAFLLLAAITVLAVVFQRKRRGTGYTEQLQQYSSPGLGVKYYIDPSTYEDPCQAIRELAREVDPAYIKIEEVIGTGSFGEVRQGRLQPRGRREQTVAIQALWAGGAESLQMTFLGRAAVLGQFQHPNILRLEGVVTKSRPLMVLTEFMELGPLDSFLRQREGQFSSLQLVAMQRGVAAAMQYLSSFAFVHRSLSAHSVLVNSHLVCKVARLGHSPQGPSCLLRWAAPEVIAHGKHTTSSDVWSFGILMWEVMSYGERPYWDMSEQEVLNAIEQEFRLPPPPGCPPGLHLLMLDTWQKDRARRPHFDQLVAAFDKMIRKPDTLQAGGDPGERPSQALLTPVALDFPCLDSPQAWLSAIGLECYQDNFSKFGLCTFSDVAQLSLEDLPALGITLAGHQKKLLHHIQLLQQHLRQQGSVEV

[7] = target: Cyclin-dependent kinase 11A (Homo sapiens) (UniProt Q9UQ88); experiment: Inhibition of CDC2L2 (unknown origin) assessed as remaining activity at 1 uM by Kinome scan method relative to control
Cyclin-dependent kinase 11A (Homo sapiens), sequence (Q9UQ88 whole entry): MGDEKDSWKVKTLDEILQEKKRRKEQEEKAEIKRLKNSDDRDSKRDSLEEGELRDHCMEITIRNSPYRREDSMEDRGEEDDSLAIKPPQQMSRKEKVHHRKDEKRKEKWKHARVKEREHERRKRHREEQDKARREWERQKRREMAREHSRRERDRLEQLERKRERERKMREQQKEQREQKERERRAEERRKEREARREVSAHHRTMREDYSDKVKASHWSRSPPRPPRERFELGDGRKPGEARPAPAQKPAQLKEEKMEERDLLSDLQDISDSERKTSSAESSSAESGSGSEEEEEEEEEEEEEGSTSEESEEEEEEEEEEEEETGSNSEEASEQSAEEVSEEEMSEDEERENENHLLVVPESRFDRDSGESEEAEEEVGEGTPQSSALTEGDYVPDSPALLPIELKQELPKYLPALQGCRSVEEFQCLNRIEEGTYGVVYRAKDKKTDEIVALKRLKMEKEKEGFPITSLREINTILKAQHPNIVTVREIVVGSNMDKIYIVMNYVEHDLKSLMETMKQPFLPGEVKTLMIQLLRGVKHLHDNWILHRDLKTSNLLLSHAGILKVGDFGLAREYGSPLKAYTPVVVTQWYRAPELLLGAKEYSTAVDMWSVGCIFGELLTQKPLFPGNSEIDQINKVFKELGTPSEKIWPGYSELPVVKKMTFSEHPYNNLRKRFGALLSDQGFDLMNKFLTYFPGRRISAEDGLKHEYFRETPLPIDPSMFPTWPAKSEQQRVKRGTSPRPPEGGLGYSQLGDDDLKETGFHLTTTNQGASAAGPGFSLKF

[8] = target: Mitogen-activated protein kinase 8 (Homo sapiens) (UniProt P45983); experiment: Inhibition of JNK1 (unknown origin) assessed as remaining activity at 1 uM by Kinome scan method relative to control
Mitogen-activated protein kinase 8 (Homo sapiens), sequence (P45983 whole entry): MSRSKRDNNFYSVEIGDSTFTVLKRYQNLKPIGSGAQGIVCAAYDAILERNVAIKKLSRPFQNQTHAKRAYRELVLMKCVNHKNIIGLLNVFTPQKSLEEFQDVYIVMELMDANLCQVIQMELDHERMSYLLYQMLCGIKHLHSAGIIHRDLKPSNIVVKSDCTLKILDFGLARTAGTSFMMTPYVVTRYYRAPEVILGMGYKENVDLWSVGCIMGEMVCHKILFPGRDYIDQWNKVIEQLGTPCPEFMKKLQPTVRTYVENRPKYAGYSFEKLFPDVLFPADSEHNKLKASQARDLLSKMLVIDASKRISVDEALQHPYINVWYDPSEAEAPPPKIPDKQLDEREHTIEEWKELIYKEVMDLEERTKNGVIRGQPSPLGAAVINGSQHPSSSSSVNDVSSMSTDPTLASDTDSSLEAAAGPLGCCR

[9] = target: T3, Myotonin-protein kinase (Homo sapiens) (UniProt Q09013); experiment: Inhibition of DMPK (unknown origin) assessed as remaining activity at 1 uM by Kinome scan method relative to control
T3 sequence (whole entry): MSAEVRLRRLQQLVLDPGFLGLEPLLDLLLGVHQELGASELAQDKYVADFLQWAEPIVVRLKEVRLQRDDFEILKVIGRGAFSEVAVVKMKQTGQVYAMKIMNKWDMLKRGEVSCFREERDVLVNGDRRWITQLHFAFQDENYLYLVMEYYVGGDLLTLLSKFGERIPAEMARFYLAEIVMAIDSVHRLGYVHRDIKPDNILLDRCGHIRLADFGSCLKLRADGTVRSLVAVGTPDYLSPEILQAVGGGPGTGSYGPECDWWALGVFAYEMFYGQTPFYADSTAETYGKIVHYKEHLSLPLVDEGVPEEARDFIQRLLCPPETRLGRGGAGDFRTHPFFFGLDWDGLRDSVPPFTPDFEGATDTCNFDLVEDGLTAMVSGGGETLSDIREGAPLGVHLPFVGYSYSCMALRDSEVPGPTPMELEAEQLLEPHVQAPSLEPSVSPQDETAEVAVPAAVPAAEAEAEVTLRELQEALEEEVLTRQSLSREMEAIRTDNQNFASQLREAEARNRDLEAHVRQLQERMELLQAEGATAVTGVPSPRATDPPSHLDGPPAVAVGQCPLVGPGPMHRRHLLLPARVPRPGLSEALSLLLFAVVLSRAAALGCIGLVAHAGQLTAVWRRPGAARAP

Row | Structure (SMILES) | Activity [1] | Activity [2] | Activity [3] | Activity [4] | Activity [5] | Activity [6] | Activity [7] | Activity [8] | Activity [9]
1 | Nc1ccccc1Nc1ccc2c(c1)CCc1ccccc1C2=O | 77% | 81% | 90% | 96% | 98% | 99% | 92% | 97% | 93%
2 | O=C1c2ccc(Nc3ccc(F)cc3F)cc2CCc2ccc(OC[C@H](O)CO)cc21 [Skepinone-L] | 91% | 96% | 97% | 100% | 100% | 91% | 93% | 75% | 76%

Source: ChEMBL document CHEMBL5696441 (Nat Chem Biol, 2011)
